Key:
V1a = V1a (Homo sapiens, UniProt P37288); assay: In-vitro receptor binding assay (3H-arginine-8-vasopressin), V1a
Protocol: (§1) (A) In-Vitro Binding Assay […] The reaction plates are allowed to sit at room temperature for one hour. The samples are filtered through Unifilter GF/C plates (presoaked in 0.3 polyethyleneimine). The plates are washed 5 times with cold physiological saline containing 0.05% Tween 20. After drying, the bottom of the filter plates are sealed and 0.025 ml of Microscint-20 is added to each filter. The top of the plate is sealed, and the plate is counted. Non-specific binding is determined by the addition of 1.25 μM […]-vasopressin in those wells. % Inh. is calculated as follows: […]

human V2 receptor = human V2 receptor (Homo sapiens, UniProt P30518); assay: In-vitro receptor binding assay (3H-arginine-8-vasopressin), V2; conditions: for inhibition at 1 µM / inhibition at 0.1 µM: read-out: Receptor Binding V2 (% Inh. @ concentration in μM)
Chain of human V2 receptor (P30518 whole entry): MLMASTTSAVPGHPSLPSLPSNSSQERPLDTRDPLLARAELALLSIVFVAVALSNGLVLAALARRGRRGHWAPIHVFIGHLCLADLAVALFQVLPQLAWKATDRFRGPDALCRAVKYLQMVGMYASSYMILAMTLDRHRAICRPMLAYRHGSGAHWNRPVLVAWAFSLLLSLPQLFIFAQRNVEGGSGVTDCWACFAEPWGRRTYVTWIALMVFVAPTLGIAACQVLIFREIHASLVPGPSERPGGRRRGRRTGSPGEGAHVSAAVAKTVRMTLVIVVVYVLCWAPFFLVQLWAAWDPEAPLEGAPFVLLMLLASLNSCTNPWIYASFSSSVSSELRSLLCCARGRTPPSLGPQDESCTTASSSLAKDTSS
Protocol: as §1

[1] = @ 0.1 μM, read-out: Receptor Binding V1a (% Inh. @ concentration in μM)

Chain of V1a (P37288 whole entry): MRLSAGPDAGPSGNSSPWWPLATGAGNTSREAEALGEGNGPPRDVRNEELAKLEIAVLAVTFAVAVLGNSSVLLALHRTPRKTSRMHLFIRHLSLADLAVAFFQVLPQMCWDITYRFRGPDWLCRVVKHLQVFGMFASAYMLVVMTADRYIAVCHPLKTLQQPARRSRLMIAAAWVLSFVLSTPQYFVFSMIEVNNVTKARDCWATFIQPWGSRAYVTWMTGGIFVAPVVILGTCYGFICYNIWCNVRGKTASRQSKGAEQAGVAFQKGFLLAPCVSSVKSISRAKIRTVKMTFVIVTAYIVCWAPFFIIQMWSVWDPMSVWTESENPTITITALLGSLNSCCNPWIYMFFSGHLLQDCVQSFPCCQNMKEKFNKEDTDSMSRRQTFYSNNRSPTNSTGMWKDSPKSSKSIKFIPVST

SMILES | inhibition at 1 µM (human V2 receptor; @ 1 μM) | IC50 (V1a) | IC50 (human V2 receptor) | other results
O=C(c1ccccc1-c1ccccc1)N1CCC2(C=CCCC2)Cc2ccccc21 (stereo not drawn) [Compound 64] | – | – | – | Receptor Binding V1a (% Inh. @ concentration in μM) (V1a; @ 1 μM): 1% @ 1; Receptor Binding V2 (% Inh. @ concentration in μM) (human V2 receptor; @ 1 μM): 12% @ 1
O=C(O)c1ccc(C(=O)N2CCC3(C=CCCC3)Cc3ccccc32)cc1 (stereo not drawn) [Compound 65, 4-(4-Carboxybenzoyl)-4-aza-[6,5]-spiro-[5,6]-benzododec-2′-ene] | 11% | – | – | inhibition at 1 µM (V1a; @ 1 μM, read-out: Receptor Binding V1a (% Inh. @ concentration in μM)): 8%
O=C(Nc1ccc(C(=O)N2CCC3(C=CCCC3)Cc3ccccc32)cc1)c1ccccc1 (stereo not drawn) [Compound 67] | – | 0.02 µM | 0.39 µM | –
Nc1ccc(C(=O)N2CCC3(C=CCCC3)Cc3ccccc32)cc1 (stereo not drawn) [Compound 68] | 3% | 0.81 µM | – | –
Nc1ccc(C(=O)Nc2ccc(C(=O)N3CCC4(C=CCCC4)Cc4ccccc43)cc2)cc1 (stereo not drawn) [Compound 70] | – | 0.01 µM | – | Receptor Binding V2 (% Inh. @ concentration in μM) (human V2 receptor; @ 1 μM): 21% @ 1
COc1ccccc1C(=O)Nc1ccc(C(=O)N2CCC3(C=CCCC3)Cc3ccccc32)cc1 (stereo not drawn) [Compound 71] | – | 0.03 µM | 0.2 µM | –
CN(C)c1ccc(C(=O)N2CCC3(C=CCCC3)Cc3cc(Cl)c(Cl)cc32)cc1 (stereo not drawn) [Compound 72] | – | 0.04 µM | – | Receptor Binding V2 (% Inh. @ concentration in μM) (human V2 receptor; @ 1 μM): 16% @ 1
CCCCOc1ccc(C(=O)N2CCC3(C=CCCC3)Cc3cc(Cl)c(Cl)cc32)cc1 (stereo not drawn) [Compound 73] | – | 0.09 µM | – | Receptor Binding V2 (% Inh. @ concentration in μM) (human V2 receptor; @ 1 μM): 10% @ 1
COc1ccc(C(=O)N2CCC3(C=CCCC3)Cc3ccccc32)c(OC)c1 (stereo not drawn) [Compound 74] | – | 0.19 µM | – | Receptor Binding V2 (% Inh. @ concentration in μM) (human V2 receptor; @ 1 μM): 27% @ 1
COc1ccc(C(=O)N2CCC3(C=CCCC3)Cc3ccccc32)cc1OC (stereo not drawn) [Compound 75] | 1% | 0.07 µM | – | –
CCCCCCCOc1ccc(C(=O)N2CCC3(C=CCCC3)Cc3ccccc32)cc1 (stereo not drawn) [Compound 76] | 0% | 1 µM | – | –
O=C(c1ccc(OC(F)(F)F)cc1)N1CCC2(C=CCCC2)Cc2ccccc21 (stereo not drawn) [Compound 77] | 16% | 0.9 µM | – | –
O=C(c1ccc(O)cc1)N1CCC2(C=CCCC2)Cc2ccccc21 (stereo not drawn) [Compound 78] | 3% | 0.51 µM | – | –
CC(C)Nc1ccc(C(=O)N2CCC3(C=CCCC3)Cc3ccccc32)cc1 (stereo not drawn) [Compound 79] | 19% | 0.19 µM | – | –
Cc1ccc(C(=O)Nc2ccc(C(=O)N3CCC4(C=CCCC4)Cc4ccccc43)cc2)cc1C (stereo not drawn) [Compound 81] | 47% | 0.14 µM | – | –
O=C(Nc1ccccc1)c1ccc(C(=O)N2CCC3(C=CCCC3)Cc3ccccc32)cc1 (stereo not drawn) [Compound 82, 4-(4-Anilinocarbonylbenzoyl)-4-aza-[6,5]-spiro-[5,6]-benzododec-2′-ene] | 41% | 0.02 µM | – | –
O=C(Nc1ccccc1)Nc1ccc(C(=O)N2CCC3(C=CCCC3)Cc3ccccc32)cc1 (stereo not drawn) [Compound 83] | 25% | 0.17 µM | – | –
O=C(Nc1ccc(C(=O)N2CCC3(C=CCCC3)Cc3ccccc32)cc1)c1ccc(-c2ccccc2)cc1 (stereo not drawn) [Compound 84] | – | – | – | Receptor Binding V1a (% Inh. @ concentration in μM) (V1a; @ 1 μM): 35% @ 1; Receptor Binding V2 (% Inh. @ concentration in μM) (human V2 receptor; @ 1 μM): 2% @ 1
Cc1cccc(C(=O)Nc2ccc(C(=O)N3CCC4(C=CCCC4)Cc4ccccc43)cc2)c1 (stereo not drawn) [Compound 85] | – | 0.05 µM | 0.38 µM | –
CC(C)COc1ccc(C(=O)N2CCC3(C=CCCC3)Cc3ccccc32)cc1 (stereo not drawn) [Compound 86] | 10% | 0.065 µM | – | –
Cc1ccc(C(=O)Nc2ccc(C(=O)N3CCC4(C=CCCC4)Cc4ccccc43)cc2)cc1 (stereo not drawn) [Compound 87] | 47% | 0.074 µM | – | –
CSc1ccc(C(=O)N2CCC3(C=CCCC3)Cc3ccccc32)cc1 (stereo not drawn) [Compound 92] | 0% | 0.066 µM | – | –
CSc1cccc(C(=O)Nc2ccc(C(=O)N3CCC4(C=CCCC4)Cc4ccccc43)cc2)c1 (stereo not drawn) [Compound 93] | 26% | 0.015 µM | – | –
C[S+]([O-])c1ccc(C(=O)N2CCC3(C=CCCC3)Cc3ccccc32)cc1 (stereo not drawn) [Compound 94] | 10% | 0.02 µM | – | –

SMILES | inhibition at 1 µM (human V2 receptor; @ 1 μM) | IC50 (V1a) | IC50 (human V2 receptor) | other results
C[S+]([O-])c1ccc(C(=O)Nc2ccc(C(=O)N3CCC4(C=CCCC4)Cc4ccccc43)cc2)cc1 (stereo not drawn) [Compound 95] | – | – | – | Receptor Binding V1a (% Inh. @ concentration in μM) (V1a; @ 1 μM): 27% @ 1; Receptor Binding V2 (% Inh. @ concentration in μM) (human V2 receptor; @ 1 μM): 0% @ 1
O=C(Nc1ccc(C(=O)N2CCC3(C=CCCC3)Cc3ccccc32)cc1)c1ccccc1Cl (stereo not drawn) [Compound 96] | – | 0.012 µM | 0.18 µM | –
Cc1ccccc1NC(=O)c1ccc(C(=O)N2CCC3(C=CCCC3)Cc3ccccc32)cc1 (stereo not drawn) [Compound 98] | – | 0.027 µM | 0.2 µM | –
O=C(Nc1ccc(C(=O)N2CCC3(C=CCCC3)Cc3ccccc32)cc1)c1c(Cl)cccc1Cl (stereo not drawn) [Compound 102] | – | 0.046 µM | 0.159 µM | –
O=C(Nc1ccc(C(=O)N2CCC3(C=CCCC3)Cc3ccccc32)cc1)c1ccc(Cl)cc1Cl (stereo not drawn) [Compound 103] | – | 0.016 µM | 0.274 µM | –
O=C(Nc1ccc(C(=O)N2CCC3(C=CCCC3)Cc3ccccc32)cc1)c1ccncc1 (stereo not drawn) [Compound 104] | 36% | 0.051 µM | – | –
Cc1ncccc1C(=O)Nc1ccc(C(=O)N2CCC3(C=CCCC3)Cc3ccccc32)cc1 (stereo not drawn) [Compound 105] | – | 0.035 µM | 1 µM | –
O=C(c1ccccc1F)N1CCC2(C=CCCC2)Cc2ccccc21 (stereo not drawn) [Compound 107] | 21% | 0.06 µM | – | –
Cc1ccc(F)cc1C(=O)Nc1ccc(C(=O)N2CCC3(C=CCCC3)Cc3ccccc32)c(Cl)c1 (stereo not drawn) [Compound 111] | – | 0.8 µM | 0.045 µM | –
Cc1ccccc1C(=O)Nc1ccc(C(=O)N2CCC3(C=CCCC3)Cc3ccccc32)c(Cl)c1 (stereo not drawn) [Compound 112] | – | 0.062 µM | 0.08 µM | –
Cc1ccc(-c2ccccc2C(=O)Nc2ccc(C(=O)N3CCC4(C=CCCC4)Cc4ccccc43)cc2)cc1 (stereo not drawn) [Compound 114] | – | 0.09 µM | 0.095 µM | –
COc1cc(NC(=O)c2ccccc2F)ccc1C(=O)N1CCC2(C=CCCC2)Cc2ccccc21 (stereo not drawn) [Compound 115] | – | 0.019 µM | – | inhibition at 0.1 µM (human V2 receptor; @ 0.1 μM): 37%
COc1cc(NC(=O)c2cc(F)ccc2C)ccc1C(=O)N1CCC2(C=CCCC2)Cc2ccccc21 (stereo not drawn) [Compound 116] | – | 0.019 µM | 0.091 µM | –
Cc1ccc(-c2ccccc2C(=O)Nc2ccc(C(=O)N3CCC4(C=CCCC4)Cc4ccccc43)c(Cl)c2)cc1 (stereo not drawn) [Compound 117] | – | – | 0.1 µM | Receptor Binding V1a (% Inh. @ concentration in μM) (V1a; @ 0.1 μM): 30% @ 0.1
O=C(Nc1ccc(C(=O)N2CCC3(C=CCCC3)Cc3ccccc32)c(Cl)c1)c1ccccc1-c1ccccc1 (stereo not drawn) [Compound 118] | – | – | 0.085 µM | inhibition at 0.1 µM (V1a; [1]): 40%
O=C(Nc1ccc(C(=O)N2Cc3ccccc3CC3(C=CCCC3)C2)cc1)c1ccccc1F (stereo not drawn) [Compound 128, 4-(2-Fluorobenzoyl-4-aminobenzoyl)-3-aza-[6,5]-spiro-[5,6]-benzododec-2′-ene] | – | 0.042 µM | – | inhibition at 0.1 µM (human V2 receptor; @ 0.1 μM): 33%
O=C(Nc1ccc(C(=O)C2Cc3ccccc3CC3(C=CCCC3)C2)cc1)c1ccccc1-c1ccccc1 (stereo not drawn) [Compound 129] | – | – | – | Receptor Binding V1a (% Inh. @ concentration in μM) (V1a; @ 0.1 μM): 30% @ 0.1; Receptor Binding V2 (% Inh. @ concentration in μM) (human V2 receptor; @ 0.1 μM): 9% @ 0.1
Cc1ccccc1C(=O)Nc1ccc(C(=O)C2Cc3ccccc3CC3(C=CCCC3)C2)cc1 (stereo not drawn) [Compound 130] | – | 0.047 µM | – | Receptor Binding V2 (% Inh. @ concentration in μM) (human V2 receptor; @ 0.1 μM): 15% @ 0.1
Cc1ccc(F)cc1C(=O)Nc1ccc(C(=O)C2Cc3ccccc3CC3(C=CCCC3)C2)cc1 (stereo not drawn) [Compound 131] | – | 0.1 µM | – | Receptor Binding V2 (% Inh. @ concentration in μM) (human V2 receptor; @ 0.1 μM): 3% @ 0.1
COC(=O)C1=CC2(CC1)CCN(C(=O)c1ccc(NC(=O)c3ccccc3F)cc1)c1ccccc1C2 (stereo not drawn) [Compound 133] | – | 0.015 µM | – | inhibition at 0.1 µM (human V2 receptor; @ 0.1 μM): 23%
COC(=O)C1=CC2(CC1)CCN(C(=O)c1ccc(N)cc1)c1ccccc1C2 (stereo not drawn) [Compound 134] | – | – | – | inhibition at 0.1 µM (V1a; [1]): 21%; inhibition at 0.1 µM (human V2 receptor; @ 0.1 μM): 16%
O=C(NCCN1CCCC1)C1=CC2(CC1)CCN(C(=O)c1ccc(NC(=O)c3ccccc3-c3ccccc3)cc1)c1ccccc1C2 (stereo not drawn) [Compound 135] | – | 0.013 µM | 0.024 µM | –
Cc1ccc(F)cc1C(=O)Nc1ccc(C(=O)N2CCC3(C=C(C(=O)NCCN(C)C)CC3)Cc3ccccc32)c(Cl)c1 (stereo not drawn) [Compound 136] | – | – | 0.052 µM | inhibition at 0.1 µM (V1a; [1]): 60%
Cc1ccc(F)cc1C(=O)Nc1ccc(C(=O)N2CCC3(C=C(CO)CC3)Cc3ccccc32)c(Cl)c1 (stereo not drawn) [Compound 137] | – | – | – | inhibition at 0.1 µM (V1a; [1]): 53%; inhibition at 0.1 µM (human V2 receptor; @ 0.1 μM): 66%

— patent US7691844B2, “Nonpeptide substituted spirobenzoazepines as vasopressin antagonists” (Ortho-McNeil Pharmaceutical, Inc., priority 2000, dated 2010)
